System: rats with streptozotocin-induced diabetes
Test: Hypoglycemic effect and relative bioavailability after oral administration
Assay type: in vivo, rat
Settings: diabetic rats fasted 12 hours, oral 20 IU/kg, n = 6

insulin
Hypoglycemic effect (plasma glucose relative to the initial value): did not appreciably lower the blood glucose levels

From article PMC3230571 (International Journal of Nanomedicine, 2011)
